tested on: Avena fatua (AVEFA); experiment: Example B pre-emergence herbicidal activity, glasshouse pot test; format: in vivo; conditions: 312 h, rate 250 g/ha, evaluated after 13 days, read-out: Pre-emergence activity AVEFA (100=total damage to plant; 0=no damage to plant)
Experimental: (§1) Seeds of a variety of test species were sown in standard soil in pots. After cultivation for one day (pre-emergence) or after 8 days cultivation (post-emergence) under controlled conditions in a glasshouse (at 24/16° C., day/night; 14 hours light; 65% humidity), the plants were sprayed with an aqueous spray solution derived from the formulation of the technical active ingredient in acetone/water (50:50) solution containing 0.5% Tween 20 (polyoxyethelyene sorbitan monolaurate, CAS RN 9005-64-5). The test plants were then grown in a glasshouse under controlled conditions in a glasshouse (at 24/16° C., day/night; 14 hours light; 65% humidity) and watered twice daily. After 13 days for pre and post-emergence, the test was evaluated (100=total damage to plant; 0=no damage to plant).
(§2) Alopecurus myosuroides (ALOMY), Avena fatua (AVEFA), Setaria faberi (SETFA), Echinochloa crus-galli (ECHCG), Solanum nigrum (SOLNI) and Amaranthus retroflexus (AMARE)

SMILES | pest or weed control at 250 g/ha
CCOC[C@]12CC[C@H](O1)C(=O)C(c1cc(-c3ccc(Cl)c(F)c3)ccc1CC)=C2O (single isomer, unassigned) [Compound A-126] | 90%
CCc1ccc(-c2ccc(Cl)cc2Cl)cc1C1=C(O)[C@@]2(C)CC[C@H](O2)C1=O (single isomer, unassigned) [Compound A-128] | 80%
CCOC[C@]12CC[C@H](O1)C(=O)C(c1cc(-c3ccc(Cl)c(Cl)c3)ccc1CC)=C2O (single isomer, unassigned) [Compound A-129] | 30%
CCc1ccc(-c2ccc(Cl)cc2Cl)cc1C1=C(O)C(C)(C)SC(C)(C)C1=O (single isomer, unassigned) [Compound C-4] | 0%

tested on: Setaria faberi (SETFA); experiment: as above; format: in vivo; conditions: 312 h, rate 250 g/ha, evaluated after 13 days, read-out: Pre-emergence activity SETFA (100=total damage to plant; 0=no damage to plant)
Experimental: as §1, §2

SMILES | pest or weed control at 250 g/ha
CCOC[C@]12CC[C@H](O1)C(=O)C(c1cc(-c3ccc(Cl)c(F)c3)ccc1CC)=C2O (single isomer, unassigned) [Compound A-126] | 100%
CCc1ccc(-c2ccc(Cl)cc2Cl)cc1C1=C(O)[C@@]2(C)CC[C@H](O2)C1=O (single isomer, unassigned) [Compound A-128] | 90%
CCOC[C@]12CC[C@H](O1)C(=O)C(c1cc(-c3ccc(Cl)c(Cl)c3)ccc1CC)=C2O (single isomer, unassigned) [Compound A-129] | 90%
CCc1ccc(-c2ccc(Cl)cc2Cl)cc1C1=C(O)C(C)(C)SC(C)(C)C1=O (single isomer, unassigned) [Compound C-4] | 0%

tested on: Echinochloa crus-galli (ECHCG); experiment: as above; format: in vivo; conditions: 312 h, rate 250 g/ha, evaluated after 13 days, read-out: Pre-emergence activity ECHCG (100=total damage to plant; 0=no damage to plant)
Experimental: as §1, §2

SMILES | pest or weed control at 250 g/ha
CCOC[C@]12CC[C@H](O1)C(=O)C(c1cc(-c3ccc(Cl)c(F)c3)ccc1CC)=C2O (single isomer, unassigned) [Compound A-126] | 80%
CCc1ccc(-c2ccc(Cl)cc2Cl)cc1C1=C(O)[C@@]2(C)CC[C@H](O2)C1=O (single isomer, unassigned) [Compound A-128] | 70%
CCOC[C@]12CC[C@H](O1)C(=O)C(c1cc(-c3ccc(Cl)c(Cl)c3)ccc1CC)=C2O (single isomer, unassigned) [Compound A-129] | 40%
CCc1ccc(-c2ccc(Cl)cc2Cl)cc1C1=C(O)C(C)(C)SC(C)(C)C1=O (single isomer, unassigned) [Compound C-4] | 0%

tested on: Amaranthus retroflexus (AMARE); experiment: as above; format: in vivo; conditions: 312 h, rate 250 g/ha, evaluated after 13 days, read-out: Pre-emergence activity AMARE (100=total damage to plant; 0=no damage to plant)
Experimental: as §1, §2

SMILES | pest or weed control at 250 g/ha
CCOC[C@]12CC[C@H](O1)C(=O)C(c1cc(-c3ccc(Cl)c(F)c3)ccc1CC)=C2O (single isomer, unassigned) [Compound A-126] | 0%
CCc1ccc(-c2ccc(Cl)cc2Cl)cc1C1=C(O)[C@@]2(C)CC[C@H](O2)C1=O (single isomer, unassigned) [Compound A-128] | 0%
CCOC[C@]12CC[C@H](O1)C(=O)C(c1cc(-c3ccc(Cl)c(Cl)c3)ccc1CC)=C2O (single isomer, unassigned) [Compound A-129] | 0%
CCc1ccc(-c2ccc(Cl)cc2Cl)cc1C1=C(O)C(C)(C)SC(C)(C)C1=O (single isomer, unassigned) [Compound C-4] | 0%

tested on: Alopecurus myosuroides (ALOMY); experiment: as above; format: in vivo; conditions: 312 h, rate 250 g/ha, evaluated after 13 days, read-out: Pre-emergence activity ALOMY (100=total damage to plant; 0=no damage to plant)
Experimental: as §1, §2

SMILES | pest or weed control at 250 g/ha
CCOC[C@]12CC[C@H](O1)C(=O)C(c1cc(-c3ccc(Cl)c(F)c3)ccc1CC)=C2O (single isomer, unassigned) [Compound A-126] | 30%
CCc1ccc(-c2ccc(Cl)cc2Cl)cc1C1=C(O)[C@@]2(C)CC[C@H](O2)C1=O (single isomer, unassigned) [Compound A-128] | 40%
CCOC[C@]12CC[C@H](O1)C(=O)C(c1cc(-c3ccc(Cl)c(Cl)c3)ccc1CC)=C2O (single isomer, unassigned) [Compound A-129] | 20%
CCc1ccc(-c2ccc(Cl)cc2Cl)cc1C1=C(O)C(C)(C)SC(C)(C)C1=O (single isomer, unassigned) [Compound C-4] | 0%

tested on: Avena fatua (AVEFA); experiment: Example B post-emergence herbicidal activity, glasshouse pot test; format: in vivo; conditions: 312 h, rate 250 g/ha, evaluated after 13 days, read-out: Post-emergence activity AVEFA (100=total damage to plant; 0=no damage to plant)
Experimental: as §1, §2

SMILES | pest or weed control at 250 g/ha
CCOC[C@]12CC[C@H](O1)C(=O)C(c1cc(-c3ccc(Cl)c(F)c3)ccc1CC)=C2O (single isomer, unassigned) [Compound A-126] | 90%
CCc1ccc(-c2ccc(Cl)cc2Cl)cc1C1=C(O)[C@@]2(C)CC[C@H](O2)C1=O (single isomer, unassigned) [Compound A-128] | 90%
CCOC[C@]12CC[C@H](O1)C(=O)C(c1cc(-c3ccc(Cl)c(Cl)c3)ccc1CC)=C2O (single isomer, unassigned) [Compound A-129] | 80%
CCc1ccc(-c2ccc(Cl)cc2Cl)cc1C1=C(O)C(C)(C)SC(C)(C)C1=O (single isomer, unassigned) [Compound C-4] | 30%

tested on: Setaria faberi (SETFA); experiment: as above; format: in vivo; conditions: 312 h, rate 250 g/ha, evaluated after 13 days, read-out: Post-emergence activity SETFA (100=total damage to plant; 0=no damage to plant)
Experimental: as §1, §2

SMILES | pest or weed control at 250 g/ha
CCOC[C@]12CC[C@H](O1)C(=O)C(c1cc(-c3ccc(Cl)c(F)c3)ccc1CC)=C2O (single isomer, unassigned) [Compound A-126] | 100%
CCc1ccc(-c2ccc(Cl)cc2Cl)cc1C1=C(O)[C@@]2(C)CC[C@H](O2)C1=O (single isomer, unassigned) [Compound A-128] | 100%
CCOC[C@]12CC[C@H](O1)C(=O)C(c1cc(-c3ccc(Cl)c(Cl)c3)ccc1CC)=C2O (single isomer, unassigned) [Compound A-129] | 80%
CCc1ccc(-c2ccc(Cl)cc2Cl)cc1C1=C(O)C(C)(C)SC(C)(C)C1=O (single isomer, unassigned) [Compound C-4] | 70%

tested on: Echinochloa crus-galli (ECHCG); experiment: as above; format: in vivo; conditions: 312 h, rate 250 g/ha, evaluated after 13 days, read-out: Post-emergence activity ECHCG (100=total damage to plant; 0=no damage to plant)
Experimental: as §1, §2

SMILES | pest or weed control at 250 g/ha
CCOC[C@]12CC[C@H](O1)C(=O)C(c1cc(-c3ccc(Cl)c(F)c3)ccc1CC)=C2O (single isomer, unassigned) [Compound A-126] | 100%
CCc1ccc(-c2ccc(Cl)cc2Cl)cc1C1=C(O)[C@@]2(C)CC[C@H](O2)C1=O (single isomer, unassigned) [Compound A-128] | 100%
CCOC[C@]12CC[C@H](O1)C(=O)C(c1cc(-c3ccc(Cl)c(Cl)c3)ccc1CC)=C2O (single isomer, unassigned) [Compound A-129] | 90%
CCc1ccc(-c2ccc(Cl)cc2Cl)cc1C1=C(O)C(C)(C)SC(C)(C)C1=O (single isomer, unassigned) [Compound C-4] | 70%

tested on: Amaranthus retroflexus (AMARE); experiment: as above; format: in vivo; conditions: 312 h, rate 250 g/ha, evaluated after 13 days, read-out: Post-emergence activity AMARE (100=total damage to plant; 0=no damage to plant)
Experimental: as §1, §2

SMILES | pest or weed control at 250 g/ha
CCOC[C@]12CC[C@H](O1)C(=O)C(c1cc(-c3ccc(Cl)c(F)c3)ccc1CC)=C2O (single isomer, unassigned) [Compound A-126] | 0%
CCc1ccc(-c2ccc(Cl)cc2Cl)cc1C1=C(O)[C@@]2(C)CC[C@H](O2)C1=O (single isomer, unassigned) [Compound A-128] | 0%
CCOC[C@]12CC[C@H](O1)C(=O)C(c1cc(-c3ccc(Cl)c(Cl)c3)ccc1CC)=C2O (single isomer, unassigned) [Compound A-129] | 0%
CCc1ccc(-c2ccc(Cl)cc2Cl)cc1C1=C(O)C(C)(C)SC(C)(C)C1=O (single isomer, unassigned) [Compound C-4] | 20%

tested on: Alopecurus myosuroides (ALOMY); experiment: as above; format: in vivo; conditions: 312 h, rate 250 g/ha, evaluated after 13 days, read-out: Post-emergence activity ALOMY (100=total damage to plant; 0=no damage to plant)
Experimental: as §1, §2

SMILES | pest or weed control at 250 g/ha
CCOC[C@]12CC[C@H](O1)C(=O)C(c1cc(-c3ccc(Cl)c(F)c3)ccc1CC)=C2O (single isomer, unassigned) [Compound A-126] | 70%
CCc1ccc(-c2ccc(Cl)cc2Cl)cc1C1=C(O)[C@@]2(C)CC[C@H](O2)C1=O (single isomer, unassigned) [Compound A-128] | 80%
CCOC[C@]12CC[C@H](O1)C(=O)C(c1cc(-c3ccc(Cl)c(Cl)c3)ccc1CC)=C2O (single isomer, unassigned) [Compound A-129] | 70%
CCc1ccc(-c2ccc(Cl)cc2Cl)cc1C1=C(O)C(C)(C)SC(C)(C)C1=O (single isomer, unassigned) [Compound C-4] | 60%

From US8680012B2, “4-phenyl-pyrane-3,5-diones,4-phenyl-thiopyrane-3,6-diones and cyclohexanetriones as novel herbicides” (Syngenta Crop Protection LLC, priority 2006, dated 2014)
